Reference: patent US9481648B2, “Kinase inhibitors” (Respivert Limited, priority 2013, dated 2016)
Where two headings read alike, the source gives them in different places.

Tests used:
CYP2C9 = CYP2C9 (Homo sapiens (Human), UniProt P11712); assay: CYP2C9 inhibition study; format: in vitro ADME; settings: for inhibition at 15 µM: human, read-out: 15 μM % Inh
Description: (§1) Assessment of certain in vitro ADME (absorption, distribution, metabolism, and excretion) parameters for certain compounds of the invention was conducted by BioFocus (Saffron Walden, UK).

[1] = test system: β-catenin in d-U937 cells; assay: Accumulation of β catenin in d-U937 cells (assay m); format: cell-based, human
Procedure, shortened: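 U937 cells were differentiated with PMA (100 ng/mL) for 48–72 hr, then treated with compound or vehicle for 18 hr. After formaldehyde fixation, β-catenin was detected with a primary antibody and an HRP secondary using TMB (OD450–655). Signal was normalised to crystal violet cell staining (OD595).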

[2] = Plasma pharmacokinetics in rats, single intravenous or oral administration; format: in vivo, rat (male Wistar); settings: for C0: intravenous 0.25 mg/kg in 5% DMSO-7.5% Solutol HS15-87.5% normal saline; for Vd: read-out: Vss; for Fpo: oral 5 mg/kg, vehicle C (Example 4) or B
Description: (§2) Studies were conducted by Sai Life Sciences (Hinjewadi, Pune, India) to investigate the plasma pharmacokinetics and total colon tissue distribution of compounds of the invention. In particular, pharmacokinetic studies were carried out in: • male C57BL/6 mice, following a single oral administration; and • male Wistar rats following a single intravenous or oral administration.

Syk = Syk (Homo sapiens (Human), UniProt P43405); assay: Syk enzyme inhibition (FRET, Z-LYTE); format: biochemical
Procedure, shortened: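 Syk or c-Src enzyme (3000 or 2000 ng/mL solutions) was preincubated 2 h at RT with compound solutions at 1, 0.1, 0.01 or 0.001 µg/mL. Z-LYTE FRET peptide (8 µM solution) and ATP (800 µM solution for c-Src, 60 µM for Syk) were then added for 1 h, followed by protease development for 1 h. Phosphorylation was read as the coumarin/fluorescein emission ratio.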

[3] = Plasma pharmacokinetics and total colon tissue distribution in mice, single oral administration; format: in vivo, mouse (male C57BL/6); settings: male, C57BL/6, mouse, 5 mg/kg
Description: as §2

human hepatocytes = assay: Human hepatocyte stability test; format: in vitro ADME
Description: as §1

non-mutant kinases = format: binding; settings: for KinomeScan Selectivity Score S(1): (number of non-mutant kinases with % Ctrl <1)/(number of non-mutant kinases tested); for KinomeScan Selectivity Score S(10): (number of non-mutant kinases with % Ctrl <10)/(number of non-mutant kinases tested); for KinomeScan Selectivity Score S(35): (number of non-mutant kinases with % Ctrl <35)/(number of non-mutant kinases tested); for number of individual kinase hits, S(1): non-mutant kinases with % Ctrl <1; for number of individual kinase hits, S(10): non-mutant kinases with % Ctrl <10; for number of individual kinase hits, S(35): non-mutant kinases with % Ctrl <35
Description: These assays may be conducted by DiscoverX (formerly Ambit; San Diego, Calif.). The percentage inhibition produced by incubation with a test compound may be calculated relative to the non-inhibited control.

[4] = male, Wistar, rat, plasma, rats, intravenous 0.25 mg/kg
[5] = male, Wistar, rat, plasma, rats
[6] = male, Wistar, rat, plasma, po, 5 mg/kg
[7] = plasma, read-out: Median plasma concentration
[8] = total colon, read-out: Median total colon concentration
[9] = male, Wistar, rat, plasma, po, 5 mg/kg, read-out: Median plasma concentration

Sequence of CYP2C9 (P11712 whole entry): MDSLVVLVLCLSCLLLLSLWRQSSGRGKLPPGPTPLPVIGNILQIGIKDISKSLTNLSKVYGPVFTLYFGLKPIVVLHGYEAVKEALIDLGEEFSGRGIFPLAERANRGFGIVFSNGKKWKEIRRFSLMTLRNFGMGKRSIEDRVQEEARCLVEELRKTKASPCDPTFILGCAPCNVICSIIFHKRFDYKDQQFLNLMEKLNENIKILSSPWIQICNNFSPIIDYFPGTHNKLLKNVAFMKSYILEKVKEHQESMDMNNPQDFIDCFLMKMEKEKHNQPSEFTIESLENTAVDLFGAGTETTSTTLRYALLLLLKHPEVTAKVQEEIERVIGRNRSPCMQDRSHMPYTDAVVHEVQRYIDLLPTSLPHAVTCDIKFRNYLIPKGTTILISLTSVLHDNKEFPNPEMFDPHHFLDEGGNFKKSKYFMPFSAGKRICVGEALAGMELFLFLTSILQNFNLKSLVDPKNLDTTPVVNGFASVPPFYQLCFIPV

Compound: COc1cc(Nc2cc(Oc3ccc(NC(=O)Nc4cc(C(C)(C)C)cc(NS(C)(=O)=O)c4OC)c4ccccc34)ccn2)cc(C(=O)NCCN2CCOCC2)c1 [Example 27]
- IC50 (CYP2C9; CYP2C9, 0 min preincubation): > 15 µM
- IC50 (CYP2C9; CYP2C9, 30 min preincubation): > 13 µM
- inhibition at 15 µM (CYP2C9; CYP2C9, 0 min preincubation): 13%
- inhibition at 15 µM (CYP2C9; CYP2C9, 30 min preincubation): 55%
- % β-catenin induction ([1]; test compound 1 μg/mL): −12%
- % β-catenin induction ([1]; test compound 5 μg/mL): −7%
- % β-catenin induction ([1]; test compound 10 μg/mL): −1%
- AUC(0-inf) [2, 4]: 590 ng·h/mL
- AUC(0-t) [2, 4]: 588 ng·h/mL
- half-life [2, 4]: 48 min
- C0 [2, 5]: 3880 ng/mL
- Vd [2, 4]: 0.1 L/kg
- CI ([2]; rats, intravenous 0.25 mg/kg): 7.1 mL/min/kg
- Fpo ([2]; rats): 0.0%
- IC50 (Syk): 0.443 µM

Compound: COCCOCCOCCOc1cc(Nc2nccc(Oc3ccc(NC(=O)Nc4cc(C(C)(C)C)cc(NS(C)(=O)=O)c4OC)c4ccccc34)n2)cc(OC)c1 [Example 4, N-(5-(tert-Butyl)-2-methoxy-3-(3-(4-((2-((3-methoxy-5-(2-(2-(2-methoxyethoxy)ethoxy)-ethoxy)phenyl)amino)pyrimidin-4-yl)oxy)naphthalen-1-yl)ureido)phenyl)methanesulfonamide]
- IC50 (CYP2C9; CYP2C9, 0 min preincubation): > 15 µM
- IC50 (CYP2C9; CYP2C9, 30 min preincubation): > 15 µM
- inhibition at 15 µM (CYP2C9; CYP2C9, 0 min preincubation): 24%
- inhibition at 15 µM (CYP2C9; CYP2C9, 30 min preincubation): 41%
- % β-catenin induction ([1]; test compound 1 μg/mL): 3%
- % β-catenin induction ([1]; test compound 5 μg/mL): 20%
- % β-catenin induction ([1]; test compound 10 μg/mL): 20%
- AUC(0-inf) [2, 6]: 40.8 ng·h/mL
- AUC(0-t) [2, 6]: 27 ng·h/mL
- Cmax [2, 6]: 15.5 ng/mL
- Tmax [2, 6]: 30 min
- AUC(0-inf) [2, 4]: 563 ng·h/mL
- AUC(0-t) [2, 4]: 558 ng·h/mL
- half-life [2, 4]: 48 min
- C0 [2, 5]: 3040 ng/mL
- Vd [2, 4]: 0.2 L/kg
- CI ([2]; rats, intravenous 0.25 mg/kg): 7.9 mL/min/kg
- Fpo ([2]; rats): 0.2%
- IC50 (Syk): 0.086 µM

Compound: COc1c(NC(=O)Nc2ccc(Oc3ccnc(Nc4ccccc4)c3)c3ccccc23)cc(C(C)(C)C)cc1C(=O)NC1COC1 [Example 75, 5-(tert-Butyl)-2-methoxy-N-(oxetan-3-yl)-3-(3-(4-((2-(phenylamino)pyridin-4-yl)oxy)-naphthalen-1-yl)ureido)benzamide]
- IC50 (CYP2C9; CYP2C9, 0 min preincubation): > 15 µM
- IC50 (CYP2C9; CYP2C9, 30 min preincubation): > 15 µM
- inhibition at 15 µM (CYP2C9; CYP2C9, 0 min preincubation): 20%
- inhibition at 15 µM (CYP2C9; CYP2C9, 30 min preincubation): 36%
- concentration at 1 h [3, 7]: 1.8 ng/mL
- concentration at 2 h [3, 7]: 1.5 ng/mL
- concentration at 4 h [3, 7]: 0 ng/mL
- concentration at 6 h [3, 7]: 0 ng/mL
- concentration at 8 h [3, 7]: 0 ng/mL
- concentration at 12 h [3, 7]: 0 ng/mL
- concentration at 24 h [3, 7]: 0 ng/mL
- concentration at 1 h [3, 8]: 17.8 ng/g
- concentration at 2 h [3, 8]: 56.2 ng/g
- concentration at 4 h [3, 8]: 1340 ng/g
- concentration at 6 h [3, 8]: 5720 ng/g
- concentration at 8 h [3, 8]: 350 ng/g
- concentration at 12 h [3, 8]: 391 ng/g
- concentration at 24 h [3, 8]: 7.5 ng/g
- Mean hepatic extraction ratio (human hepatocytes): <0.50
- % β-catenin induction ([1]; test compound 1 μg/mL): 3%
- % β-catenin induction ([1]; test compound 5 μg/mL): 25%
- % β-catenin induction ([1]; test compound 10 μg/mL): 30%
- AUC(0-t) [2, 6]: 26.6 ng·h/mL
- Cmax [2, 6]: 3.8 ng/mL
- Tmax [2, 6]: 318 min
- concentration at 0.25 h [2, 9]: 0 ng/mL
- concentration at 0.5 h [2, 9]: 0 ng/mL
- concentration at 1 h [2, 9]: 0 ng/mL
- concentration at 2 h [2, 9]: 1.2 ng/mL
- concentration at 4 h [2, 9]: 3.1 ng/mL
- concentration at 6 h [2, 9]: 2 ng/mL
- concentration at 8 h [2, 9]: 3.2 ng/mL
- concentration at 12 h [2, 9]: 2.3 ng/mL
- concentration at 24 h [2, 9]: 0 ng/mL
- AUC(0-inf) [2, 4]: 952 ng·h/mL
- AUC(0-t) [2, 4]: 948 ng·h/mL
- half-life [2, 4]: 72 min
- C0 [2, 5]: 4000 ng/mL
- Vd [2, 4]: 0.1 L/kg
- CI ([2]; rats, intravenous 0.25 mg/kg): 4.4 mL/min/kg
- Fpo ([2]; rats): 0.1%
- KinomeScan Selectivity Score S(1) (non-mutant kinases; 50 nM): 0.005
- KinomeScan Selectivity Score S(10) (non-mutant kinases; 50 nM): 0.035
- KinomeScan Selectivity Score S(35) (non-mutant kinases; 50 nM): 0.099
- number of individual kinase hits, S(1) (non-mutant kinases; 50 nM): 2
- number of individual kinase hits, S(10) (non-mutant kinases; 50 nM): 14
- number of individual kinase hits, S(35) (non-mutant kinases; 50 nM): 39
- KinomeScan Selectivity Score S(1) (non-mutant kinases; 500 nM): 0.038
- KinomeScan Selectivity Score S(10) (non-mutant kinases; 500 nM): 0.139
- KinomeScan Selectivity Score S(35) (non-mutant kinases; 500 nM): 0.230
- number of individual kinase hits, S(1) (non-mutant kinases; 500 nM): 15
- number of individual kinase hits, S(10) (non-mutant kinases; 500 nM): 55
- number of individual kinase hits, S(35) (non-mutant kinases; 500 nM): 91
- selectivity compared to the Reference Compound (non-mutant kinases; as evidenced by lower selectivity scores): substantially improved selectivities
- IC50 (Syk): 0.214 µM
